The record followed here is publication PMC5320518, “Novel Liver-targeted conjugates of Glycogen Phosphorylase Inhibitor PSN-357 for the Treatment of Diabetes: Design, Synthesis, Pharmacokinetic and Pharmacological Evaluations” (Scientific Reports, 2017).

Broadly, the IC50 is the concentration that gives 50% inhibition. One may read the CLint scaled as a measure of how fast metabolising enzymes remove a compound, apart from limits set by blood flow. Higher therefore signals rapid turnover. Usually half-life stands for the time needed for the level to fall by half in the phase considered. A low value points to fast loss. As a reminder, the microsomal CLint is a measure of how fast metabolising enzymes remove a compound, apart from limits set by blood flow.

In one data set the test system is HepG2 cells. The experiment in a line: Glycogenolysis inhibition in HepG2 cells. Type of data set: cell-based, human. The conditions noted are these: HepG2 cells, 60-min incubation with 0.3 nM glucagon, mean ± S.D. of three, NI means no inhibition, read-out: IC50 (glycogenolysis inhibition, HepG2 cells). From the text: To evaluate the effects of all compounds in cells, the glycogenolysis assays were established in both rat and human liver cells based on the published method. […] The inhibitory activities of the derivatives of PSN-357 (e.g. 25–28) were also explored. It is not surprising that the derivatives still retained micromolar inhibitory activities. Introduction of steric bulks to the hydroxyl group (e.g. 33, 40, 42, 48) led to a complete loss of activity. Data analysis indicated no clear SAR for the substitutents in the cell-based assays.
The inhibition of hepatic glycogenolysis was monitored by the measurement of liver glycogen, which was done quantitatively by the anthrone reagent (Sigma) colorimetric method based on the published method. Isolated rat hepatocytes or HepG2 cells (Sigma) were treated with the test compound or DMSO solvent (final concentration, 0.10%), followed by 60-min incubation with 0.3 nM glucagon (GGN). Assays were terminated by centrifugation, and cells were digested with 30% KOH followed by glycogen determination. The IC50 values were estimated by fitting the inhibition data to a dose-dependent curve using a logistic derivative equation.

Data set [1] in a line: Stability in mouse liver microsomes (MLM). The conditions noted are these: for CLint scaled at 10 μM / half-life at 10 μM / microsomal CLint at 10 μM: C57BL/6, pH 7.4, n = 3. In kind it is in vitro ADME.
The subject of data set [2] is leptin-deficient ob/ob mice. The experiment in a line: Glucose lowering in vivo in diabetic ob/ob mice. The conditions noted are these: 50 mg/kg p.o.; for hypoglycemic effect (in words): 0-24 h. As to the method:
In vivo efficacy of compound PSN-357 and conjugate 6 were studied on leptin-deficient ob/ob mice. Metformin was chosen as a positive control. […] Especially, there was still significant decrease in BG levels by conjugate 6 up to 6 h after administration. The effect might be due to the fact that 6 acts in a sustained release and longer acting manners. It is noteworthy that the findings are highly consistent with the results from in vivo pharmacokinetic studies.
Five- to six-week old obese, diabetic ob/ob mice (male C57BL/6 J) and their lean, nondiabetic male C57BL/6 J littermates were provided by the Model Animal Research Center of Nanjing University, and housed under standard animal care practices with ad libitum access to food and water throughout the procedures. After 1 week acclimation, blood was collected from the retroorbital sinus for plasma glucose determination, and mice were randomized to groups with similar mean ± SD. Mice were then dosed p.o. daily for 4 days with vehicle consisting of DMSO/PEG400/H-β-CD (1:3:6, v/v/v). On day 5, mice were treated p.o. with PSN-357 (50 mg/kg) or conjugate 6 (50 mg/kg) or vehicle, then bled at 0, 1, 2, 3, 6 and 24 h post-dose for plasma glucose determination. Statistical analysis of the hypoglycemic effect was determined by unpaired t test with the ob/ob mice vehicle treated group.

Each structure is given as a SMILES string. Read-outs that look alike come from different tables or passages of the source. Where only a bound is given, the exact number is not on record here.

In the case of `C[C@H](CCC(=O)N[C@@H](CC(=O)O)C(=O)OC1CCN(C(=O)[C@H](Cc2ccc(F)cc2)NC(=O)c2cc3cc(Cl)ncc3[nH]2)CC1)[C@H]1CC[C@H]2[C@@H]3[C@H](O)C[C@@H]4C[C@H](O)CC[C@]4(C)[C@H]3C[C@H](O)[C@]12C` [Conjugate 6], the IC50 with HepG2 cells was found to be 6.12 ± 1.38 µM. In the data set on HepG2 cells (Homo sapiens, HepG2, 1 h), the IC50 was found to be 6.1 µM. For the same compound, in data set [1], the “metabolic stability in MLM (in words)” value is “considerable metabolic stability”, the CLint scaled at 10 μM turned out to be 64.9 mL/min/kg, the half-life at 10 μM came to 1.41 h and the microsomal CLint at 10 μM was found to be 16.4 µL/min/mg. The “hypoglycemic effect (in words)” value in data set [2] (n = 10, 50 mg/kg) is on record as “small but significant hypoglycemic effects”. Also, the “BG level at largest drop” value in data set [2] (at 3 h, p < 0.005) is recorded as “around 7.79 mmol/L”.
As for `O=C(N[C@@H](Cc1ccc(F)cc1)C(=O)N1CCC(O)CC1)c1cc2cc(Cl)ncc2[nH]1` [PSN-357], the IC50 in the data set with HepG2 cells (Homo sapiens, HepG2, 1 h) was determined as 3.1 ± 0.37 µM. In data set [1], the “metabolic stability in MLM (in words)” value is given as “good metabolic stability”, the CLint scaled at 10 μM is under 38 mL/min/kg, the half-life at 10 μM was over 2.42 h and the microsomal CLint at 10 μM is under 9.6 µL/min/mg. Besides, the “hypoglycemic effect (in words)” value in data set [2] (n = 10) is recorded as “significantly reduc the blood glucose”. Further, the blood glucose (BG) nadir in data set [2] (at 1 h, p < 0.005 vs control ob/ob mice) stood at 6.36 ± 1.46 mM.
